Source: US9999690B2, “Labeled compounds and methods of imaging, diagnosing cartilage disorders and diseases, and monitoring cartilage health using labeled and unlabeled compounds” (Perosphere Inc., priority 2013, dated 2018)

Test: physchem
Settings: water

solubility: > 100 mg/mL
Compound: N=C(N)NCCCC(N)C(=O)NCCCN1CCN(CCCNC(=O)C(N)CCCNC(=N)N)CC1 (stereo not shown) [formula V, 2-Amino-5-guanidino-pentanoic acid (3-{4-[3-(2-amino-5-guanidino-pentanoylamino)-propyl]-piperazin-1-yl}-propyl)-amide]
